Source: patent US10172814B2, “Substituted pyridyl-cycloalkyl-carboxylic acids, compositions containing them and medical uses thereof” (BAYER PHARMA AKTIENGESELLSCHAFT, priority 2014, dated 2019)

Target: human PTGES (Homo sapiens (Human), UniProt O14684)
Assay: Human PTGES biochemical enzyme inhibition assay (conversion of PGH2 to PGE2, TR-FRET)
Settings: Enzymatic conversion of PGH2 to PGE2; read-out: Human PTGES IC50
In short: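 FLAG-tagged human PTGES from Hi-5 insect cells preincubated 15–20 min with compound in pH 7.2 phosphate buffer with 2.5 mM reduced glutathione; reaction started with 8 nM PGH2 final, stopped with SnCl2/KF.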

human PTGES, sequence (O14684 whole entry): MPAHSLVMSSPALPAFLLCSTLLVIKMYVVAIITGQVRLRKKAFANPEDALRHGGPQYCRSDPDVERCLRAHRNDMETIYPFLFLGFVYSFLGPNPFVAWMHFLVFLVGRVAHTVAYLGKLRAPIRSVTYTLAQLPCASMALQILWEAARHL

Row | Structure (SMILES) | IC50 [nM]
1 | Cc1c(CCC(=O)O)cccc1NC(=O)C(c1ccc(-c2cncc(C(F)(F)F)c2)cc1)C1CCC1 (single isomer, unassigned; (+)) [Example 56, (+) 3-{3-[(Cyclobutyl{4-[5-(trifluoromethyl)pyridin-3-yl]phenyl}acetyl)amino]-2-methylphenyl}propanoic acid] | 7520
2 | Cc1c(CCC(=O)O)cccc1NC(=O)C(c1ccc(-c2ccc(C(F)(F)F)nc2)cc1)C1CCCC1 (single isomer, unassigned; (-)) [Example 5, (−) 3-{3-[(Cyclopentyl{4-[6-(trifluoromethyl)pyridin-3-yl]phenyl}acetyl)amino]-2-methylphenyl}propanoic acid] | 795
3 | Cc1c(NC(=O)C(c2ccc(-c3cncc(C(F)(F)F)c3)cc2)C2CCCC2)cccc1OCC(=O)O (single isomer, unassigned; (-)) [Example 34, (−) {3-[(Cyclopentyl{4-[5-(trifluoromethyl)pyridin-3-yl]phenyl}acetyl)amino]-2-methylphenoxy}acetic acid] | 9.85
4 | Cc1c(NC(=O)C(c2ccc(-c3cncc(C(F)(F)F)c3)c(F)c2)C2CCCC2)cccc1N(C)CC(=O)O (single isomer, unassigned; (-)) [Example 188, (−) N-{3-[(cyclopentyl{3-fluoro-4-[5-(trifluoromethyl)pyridin-3-yl]phenyl}acetyl)amino]-2-methylphenyl}-N-methylglycine, Single Enantiomer] | 24.2
5 | Cc1c(CCC(=O)O)cccc1NC(=O)C(c1ccc(-c2cncc(CC(F)(F)F)c2)c(F)c1)C1CCCC1 (single isomer, unassigned; (-)) [Example 196, (−) 3-{3-[(cyclopentyl{3-fluoro-4-[5-(2,2,2-trifluoroethyl)pyridin-3-yl]phenyl}acetyl)amino]-2-methylphenyl}propanoic acid, Single Enantiomer] | 74.7
6 | Cc1c(CCC(=O)O)cccc1NC(=O)C(c1ccc(-c2cnc(F)c(C(F)(F)F)c2)c(F)c1)C1CCCC1 (single isomer, unassigned; (-)) [Example 197] | 19.3
7 | Cc1ncc(-c2ccc(C(C(=O)Nc3cccc(CCC(=O)O)c3C)C3CCCC3)cc2F)cc1CC(C)C (single isomer, unassigned; (-)) [Example 198, (−) 3-[3-({cyclopentyl[3-fluoro-4-(5-isobutyl-6-methylpyridin-3-yl)phenyl]acetyl}amino)-2-methylphenyl]propanoic acid, Single Enantiomer] | 20
8 | Cc1c(CCC(=O)O)cccc1NC(=O)C(c1ccc(-c2cncc(OC(C)C)c2)c(F)c1)C1CCCC1 (single isomer, unassigned; (-)) [Example 199, (−) 3-[3-({cyclopentyl[3-fluoro-4-(5-isopropoxypyridin-3-yl)phenyl]acetyl}amino)-2-methylphenyl]propanoic acid, Single Enantiomer] | 30.2
9 | Cc1ncc(-c2ccc(C(C(=O)Nc3cccc(CCC(=O)O)c3C)C3CCC3)cc2F)cc1C(F)(F)F (single isomer, unassigned; (-)) [Example 206, (−) 3-{3-[(cyclobutyl{3-fluoro-4-[6-methyl-5-(trifluoromethyl)pyridin-3-yl]phenyl}acetyl)amino]-2-methylphenyl}propanoic acid, Single Enantiomer] | 10.1
10 | Cc1c(CCC(=O)O)cccc1NC(=O)C(c1ccc(-c2cncc(C(F)(F)F)c2)c(F)c1)C1CCC1 (single isomer, unassigned; (-)) [Example 208, (−) 3-{3-[(cyclobutyl{3-fluoro-4-[5-(trifluoromethyl)pyridin-3-yl]phenyl}acetyl)amino]-2-methylphenyl}propanoic acid, Single Enantiomer] | 28.1
11 | Cc1c(CCC(=O)O)cccc1NC(=O)C(c1ccc(-c2cncc(OC(C)C)c2)c(F)c1)C1CCC1 (single isomer, unassigned; (-)) [Example 209, (−) 3-[3-({cyclobutyl[3-fluoro-4-(5-isopropoxypyridin-3-yl)phenyl]acetyl}amino)-2-methylphenyl]propanoic acid, Single Enantiomer] | 39.3
12 | CCc1cncc(-c2ccc(C(C(=O)Nc3cccc(CCC(=O)O)c3C)C3CCC3)cc2F)c1 (single isomer, unassigned; (-)) [Example 210, (−) 3-[3-({cyclobutyl[4-(5-ethylpyridin-3-yl)-3-fluorophenyl]acetyl}amino)-2-methylphenyl]propanoic acid, Single Enantiomer] | 35
13 | Cc1c(CC(C)C(=O)O)cccc1NC(=O)C(c1ccc(-c2cncc(C(F)(F)F)c2)cc1)C1CCCC1 (single isomer, unassigned; stereoisomer 1) [Example 69, 3-{3-[(Cyclopentyl{4-[5-(trifluoromethyl)pyridin-3-yl]phenyl}acetyl)amino]-2-methylphenyl}-2-methylpropanoic acid, Stereoisomer 1] | 8740
14 | Cc1ncc(-c2ccc(C(C(=O)Nc3cccc(CC(C)C(=O)O)c3C)C3CCCC3)cc2)cc1Cl (single isomer, unassigned; stereoisomer 1) [Example 83, 3-[3-({[4-(5-Chloro-6-methylpyridin-3-yl)phenyl](cyclopentyl)acetyl}amino)-2-methylphenyl]-2-methylpropanoic acid, Stereoisomer 1] | 11700
15 | Cc1c(NC(=O)C(c2ccc(-c3cncc(C(F)(F)F)c3)c(F)c2)C2CCCC2)cccc1C(C)CC(=O)O (single isomer, unassigned; stereoisomer 1) [Example 116, 3-{3-[(Cyclopentyl{3-fluoro-4-[5-(trifluoromethyl)pyridin-3-yl]phenyl}acetyl)amino]-2-methylphenyl}butanoic acid, Stereoisomer 1] | 3.49
16 | Cc1ncc(-c2ccc(C(C(=O)Nc3cccc(C(C)CC(=O)O)c3C)C3CCCC3)cc2F)cc1Cl (single isomer, unassigned; stereoisomer 1) [Example 121, 3-[3-({[4-(5-Chloro-6-methylpyridin-3-yl)-3-fluorophenyl](cyclopentyl)acetyl}amino)-2-methylphenyl]butanoic acid, Stereoisomer 1] | 382
17 | Cc1c(NC(=O)C(c2ccc(-c3cncc(Cl)c3)c(F)c2)C2CCCC2)cccc1C(C)CC(=O)O (single isomer, unassigned; stereoisomer 1) [Example 126, 3-[3-({[4-(5-Chloropyridin-3-yl)-3-fluorophenyl](cyclopentyl)acetyl}amino)-2-methylphenyl]butanoic acid, Stereoisomer 1] | 646
18 | Cc1c(NC(=O)C(c2ccc(-c3cncc(Cl)c3)cc2)C2CCC2)cccc1C(C)CC(=O)O (single isomer, unassigned; stereoisomer 1) [Example 136] | 12.7
19 | Cc1c(NC(=O)C(c2ccc(-c3cncc(C(F)(F)F)c3)c(F)c2)C2CCC2)cccc1C(C)CC(=O)O (single isomer, unassigned; stereoisomer 1) [Example 147, 3-{3-[(Cyclobutyl{3-fluoro-4-[5-(trifluoromethyl)pyridin-3-yl]phenyl}acetyl)amino]-2-methylphenyl}butanoic acid, Stereoisomer 1] | 1310
